Activity calls are given as the source filed them. The rule behind the calls is not given here.
Columns and labels:
[1] = target: Glycogen synthase kinase-3 beta (Homo sapiens, UniProt P49841); assay: Inhibition of GSK3beta (unknown origin); format: toxicity
[2] = target: T1, Receptor-type tyrosine-protein kinase FLT3 (Homo sapiens, UniProt P36888); assay: Inhibition of FLT3 (unknown origin); format: toxicity
T1 sequence (P36888 whole entry): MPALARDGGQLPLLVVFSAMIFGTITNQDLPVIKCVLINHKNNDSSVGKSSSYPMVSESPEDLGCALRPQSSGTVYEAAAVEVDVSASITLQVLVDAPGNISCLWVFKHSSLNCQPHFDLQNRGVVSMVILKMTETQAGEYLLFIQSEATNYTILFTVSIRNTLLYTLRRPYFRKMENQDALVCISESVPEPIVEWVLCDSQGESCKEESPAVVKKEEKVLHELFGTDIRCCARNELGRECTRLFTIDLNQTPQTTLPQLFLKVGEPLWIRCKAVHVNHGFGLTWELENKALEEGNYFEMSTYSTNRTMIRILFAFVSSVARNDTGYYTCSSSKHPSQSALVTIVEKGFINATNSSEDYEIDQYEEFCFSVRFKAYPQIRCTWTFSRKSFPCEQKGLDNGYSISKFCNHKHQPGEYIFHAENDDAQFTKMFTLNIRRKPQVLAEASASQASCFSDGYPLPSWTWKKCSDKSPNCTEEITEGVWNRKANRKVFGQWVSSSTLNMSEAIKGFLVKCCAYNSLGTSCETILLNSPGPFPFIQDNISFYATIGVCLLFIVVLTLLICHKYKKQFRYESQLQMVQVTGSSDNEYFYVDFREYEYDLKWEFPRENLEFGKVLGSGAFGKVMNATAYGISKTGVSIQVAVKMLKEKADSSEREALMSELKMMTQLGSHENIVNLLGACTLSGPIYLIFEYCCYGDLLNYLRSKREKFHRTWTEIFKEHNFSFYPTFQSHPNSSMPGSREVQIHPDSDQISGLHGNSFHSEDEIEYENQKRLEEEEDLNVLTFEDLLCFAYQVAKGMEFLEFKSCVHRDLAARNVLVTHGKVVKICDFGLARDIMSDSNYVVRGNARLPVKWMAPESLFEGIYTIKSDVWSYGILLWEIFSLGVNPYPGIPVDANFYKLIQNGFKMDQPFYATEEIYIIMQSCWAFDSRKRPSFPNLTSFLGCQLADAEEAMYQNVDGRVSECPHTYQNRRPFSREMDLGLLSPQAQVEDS

[3] = target: T2, Protein kinase C theta type (Homo sapiens, UniProt Q04759); assay: Inhibition of PKCtheta (unknown origin) incubated for 15 mins in presence of 33P-ATP by Topcount scintillation counting method
cells = conditions: Homo sapiens, 92-1, 72 h
[4] = target: Protein kinase C alpha type (Homo sapiens, UniProt P17252); assay: Inhibition of PKCalpha (unknown origin) incubated for 15 mins in presence of 33P-ATP by Topcount scintillation counting method
[5] = Toxicity in mouse xenografted with human 92-1 cells assessed as abdominal distention at 100 mg/kg, qd after 1 week; format: organism-based; conditions: in vivo, 168 h, time 1 weeks
[6] = Toxicity in mouse xenografted with human 92-1 cells assessed as enlarged GI track at 100 mg/kg, qd measured upto 15 days; format: organism-based; conditions: in vivo, 360 h, time < 15 day
[7] = Toxicity in mouse xenografted with human 92-1 cells assessed as body weight loss at 100 mg/kg, qd measured upto 15 days; format: organism-based; conditions: in vivo, 360 h, time < 15 day
[8] = target: 5-hydroxytryptamine receptor 2B (Homo sapiens, UniProt P41595); assay: Agonist activity at 5HT2B (unknown origin); format: toxicity
92-1 [9] = assay: Antitumor activity against human 92-1 cells xenografted in mouse assessed as tumor suppression at 100 mg/kg, qd; format: functional, organism-based
[10] = Dissociation constant, pKa of compound; format: physicochemical
[11] = target: T3, Protein kinase C epsilon type (Homo sapiens, UniProt Q02156); assay: Inhibition of PKCepsilon (unknown origin)
T3 sequence (Q02156 whole entry): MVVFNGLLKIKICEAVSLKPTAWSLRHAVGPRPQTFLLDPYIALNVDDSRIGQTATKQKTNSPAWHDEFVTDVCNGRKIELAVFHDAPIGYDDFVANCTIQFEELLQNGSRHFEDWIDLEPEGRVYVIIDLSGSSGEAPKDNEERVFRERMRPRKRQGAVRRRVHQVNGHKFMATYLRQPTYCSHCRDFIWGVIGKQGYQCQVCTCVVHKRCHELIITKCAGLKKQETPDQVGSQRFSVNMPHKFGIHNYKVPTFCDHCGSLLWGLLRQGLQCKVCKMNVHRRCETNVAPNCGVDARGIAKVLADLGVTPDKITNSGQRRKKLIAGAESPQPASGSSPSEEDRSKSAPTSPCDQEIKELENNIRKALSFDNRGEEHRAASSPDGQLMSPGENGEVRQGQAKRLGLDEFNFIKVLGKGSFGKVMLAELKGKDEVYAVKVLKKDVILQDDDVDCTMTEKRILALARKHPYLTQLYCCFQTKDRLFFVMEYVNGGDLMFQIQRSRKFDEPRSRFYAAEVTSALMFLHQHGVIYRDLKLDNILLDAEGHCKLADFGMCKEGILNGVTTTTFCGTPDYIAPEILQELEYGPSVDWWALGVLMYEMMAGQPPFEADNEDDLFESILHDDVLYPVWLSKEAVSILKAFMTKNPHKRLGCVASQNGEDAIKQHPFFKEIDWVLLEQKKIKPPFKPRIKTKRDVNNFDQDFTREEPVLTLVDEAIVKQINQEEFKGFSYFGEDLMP

[12] = target: Protein kinase C delta type (Homo sapiens, UniProt Q05655); assay: Inhibition of PKCdelta (unknown origin)
92-1 [13] = assay: Antitumor activity against human 92-1 cells xenografted in mouse assessed as tumor suppression at 120 mg/kg, bid; format: functional, organism-based
SK-MEL-28 = assay: cells; conditions: Homo sapiens
[14] = target: Protein kinase C eta type (Homo sapiens, UniProt P24723); assay: Inhibition of PKCeta (unknown origin)
[15] = target: T2, Protein kinase C theta type; assay: Inhibition of PKCtheta (unknown origin)
[16] = target: Protein kinase C gamma type (Homo sapiens, UniProt P05129); assay: Inhibition of PKCgamma (unknown origin)

Sequence of Glycogen synthase kinase-3 beta (P49841 whole entry): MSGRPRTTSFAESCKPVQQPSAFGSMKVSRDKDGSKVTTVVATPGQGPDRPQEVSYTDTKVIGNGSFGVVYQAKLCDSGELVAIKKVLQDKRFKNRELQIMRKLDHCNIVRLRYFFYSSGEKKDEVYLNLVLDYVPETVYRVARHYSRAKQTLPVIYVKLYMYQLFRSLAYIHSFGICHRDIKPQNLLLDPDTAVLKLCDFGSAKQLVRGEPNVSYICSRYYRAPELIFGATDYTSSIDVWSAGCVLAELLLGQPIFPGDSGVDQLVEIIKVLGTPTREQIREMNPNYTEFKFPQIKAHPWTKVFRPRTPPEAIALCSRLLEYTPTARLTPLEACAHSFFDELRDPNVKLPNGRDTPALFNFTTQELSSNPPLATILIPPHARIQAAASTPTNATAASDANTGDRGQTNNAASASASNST
Sequence of 5-hydroxytryptamine receptor 2B (P41595 whole entry): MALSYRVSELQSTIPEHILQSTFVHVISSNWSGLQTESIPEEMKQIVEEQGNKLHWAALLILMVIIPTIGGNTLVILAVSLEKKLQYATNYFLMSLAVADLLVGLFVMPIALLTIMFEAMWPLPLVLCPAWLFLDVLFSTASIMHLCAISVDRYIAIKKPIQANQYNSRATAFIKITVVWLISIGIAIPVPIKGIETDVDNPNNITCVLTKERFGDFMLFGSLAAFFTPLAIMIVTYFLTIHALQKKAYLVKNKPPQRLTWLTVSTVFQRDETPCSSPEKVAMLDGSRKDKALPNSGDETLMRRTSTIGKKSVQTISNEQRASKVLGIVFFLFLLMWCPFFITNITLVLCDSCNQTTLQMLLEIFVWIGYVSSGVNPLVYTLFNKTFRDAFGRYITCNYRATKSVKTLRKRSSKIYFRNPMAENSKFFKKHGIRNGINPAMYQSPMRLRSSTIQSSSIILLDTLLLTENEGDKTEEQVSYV
T2 sequence (Q04759 whole entry): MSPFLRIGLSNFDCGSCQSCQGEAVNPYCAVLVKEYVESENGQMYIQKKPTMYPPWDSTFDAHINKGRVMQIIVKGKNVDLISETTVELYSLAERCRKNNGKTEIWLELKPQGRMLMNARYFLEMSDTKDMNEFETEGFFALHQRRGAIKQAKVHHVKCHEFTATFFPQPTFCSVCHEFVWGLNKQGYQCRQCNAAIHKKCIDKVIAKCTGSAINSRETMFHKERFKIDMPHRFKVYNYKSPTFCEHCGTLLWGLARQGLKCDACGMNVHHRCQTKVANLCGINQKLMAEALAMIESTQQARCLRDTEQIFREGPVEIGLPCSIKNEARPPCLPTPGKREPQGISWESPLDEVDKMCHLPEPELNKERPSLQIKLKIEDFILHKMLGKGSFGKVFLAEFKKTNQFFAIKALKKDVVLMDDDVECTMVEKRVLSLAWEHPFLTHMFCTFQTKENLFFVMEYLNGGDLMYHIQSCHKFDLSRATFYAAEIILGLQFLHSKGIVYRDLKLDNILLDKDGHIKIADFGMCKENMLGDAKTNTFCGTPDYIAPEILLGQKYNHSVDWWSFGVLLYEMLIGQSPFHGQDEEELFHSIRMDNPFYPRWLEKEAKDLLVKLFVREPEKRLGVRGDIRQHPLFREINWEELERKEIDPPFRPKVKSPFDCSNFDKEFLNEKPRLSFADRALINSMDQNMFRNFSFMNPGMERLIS
Sequence of Protein kinase C delta type (Q05655 whole entry): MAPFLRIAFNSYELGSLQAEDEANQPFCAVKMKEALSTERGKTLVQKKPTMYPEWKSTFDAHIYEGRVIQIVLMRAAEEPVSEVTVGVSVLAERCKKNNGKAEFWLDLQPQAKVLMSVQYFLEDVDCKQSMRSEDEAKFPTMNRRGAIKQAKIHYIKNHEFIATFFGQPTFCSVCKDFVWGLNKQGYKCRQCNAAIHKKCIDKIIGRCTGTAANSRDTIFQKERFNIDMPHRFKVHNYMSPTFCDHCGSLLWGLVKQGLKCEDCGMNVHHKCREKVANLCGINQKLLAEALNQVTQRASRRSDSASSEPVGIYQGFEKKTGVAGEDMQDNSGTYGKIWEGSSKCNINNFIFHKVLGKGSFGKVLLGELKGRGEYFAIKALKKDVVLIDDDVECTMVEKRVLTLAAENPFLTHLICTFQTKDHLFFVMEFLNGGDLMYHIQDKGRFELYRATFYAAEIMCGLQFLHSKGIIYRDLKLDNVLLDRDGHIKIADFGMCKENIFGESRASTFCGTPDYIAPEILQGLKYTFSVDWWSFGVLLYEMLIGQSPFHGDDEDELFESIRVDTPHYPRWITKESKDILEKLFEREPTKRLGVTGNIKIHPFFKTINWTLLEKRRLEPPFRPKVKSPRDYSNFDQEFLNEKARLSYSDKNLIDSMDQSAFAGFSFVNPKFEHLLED
Sequence of Protein kinase C eta type (P24723 whole entry): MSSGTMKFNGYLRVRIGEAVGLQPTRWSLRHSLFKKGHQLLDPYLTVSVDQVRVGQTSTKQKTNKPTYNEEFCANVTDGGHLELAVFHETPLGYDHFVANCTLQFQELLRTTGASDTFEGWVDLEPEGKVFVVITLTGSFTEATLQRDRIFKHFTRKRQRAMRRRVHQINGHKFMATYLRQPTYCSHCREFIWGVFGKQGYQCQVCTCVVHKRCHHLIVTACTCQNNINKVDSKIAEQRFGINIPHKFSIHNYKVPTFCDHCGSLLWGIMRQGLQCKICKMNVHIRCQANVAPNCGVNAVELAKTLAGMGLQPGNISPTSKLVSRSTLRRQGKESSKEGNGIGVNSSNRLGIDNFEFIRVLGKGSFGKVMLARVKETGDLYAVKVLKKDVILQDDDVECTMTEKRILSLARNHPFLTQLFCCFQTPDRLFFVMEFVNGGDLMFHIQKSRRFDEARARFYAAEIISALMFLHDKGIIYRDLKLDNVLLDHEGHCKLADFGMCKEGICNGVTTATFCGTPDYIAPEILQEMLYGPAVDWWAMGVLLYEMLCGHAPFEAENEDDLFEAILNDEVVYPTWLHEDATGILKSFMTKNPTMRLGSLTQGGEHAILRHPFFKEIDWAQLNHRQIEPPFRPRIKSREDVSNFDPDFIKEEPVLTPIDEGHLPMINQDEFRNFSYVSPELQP

Row | SMILES | IC50 [1] [nM] | IC50 [2] [nM] | IC50 [3] [nM] | EC50 (cells) [nM] | EC50 [8] [nM] | other results
1 | Nc1ncc(-c2ncccc2C(F)(F)F)nc1C(=O)Nc1cccnc1N1CCC(N)CC1 | 6900 | 3000 | 69 | 3660 | – | IC50 [4]: 43 nM
2 | CNc1ncc(-c2ncccc2OC(F)(F)F)nc1C(=O)Nc1cnccc1N1CCC(N)CC1 | – | – | – | – | – | Activity [5]: Non-Toxic; IC50 (cells): 3700 nM; Activity [6]: Non-Toxic; Activity [7]: Non-Toxic
3 | CO[C@H]1CN(c2ccncc2NC(=O)c2nc(-c3ncccc3OC(F)(F)F)cnc2N)CC[C@@H]1N | – | – | 2 | – | – | IC50 (cells): 140 nM; IC50 [4]: 0.2 nM
4 | Nc1ncc(-c2ncnc3sccc23)nc1C(=O)Nc1ncccc1N1CCC(N)CC1 | 710 | 4100 | – | – | – | –
5 | Nc1ncc(-c2nc(N3CCOCC3)ccc2C(F)(F)F)nc1C(=O)Nc1ncccc1N1CCC(N)CC1 | – | 230 | – | – | 150 | –
6 | Nc1ncc(-c2ncccc2OC(F)(F)F)nc1C(=O)Nc1ccncc1N1CCC(N)CC1 | 530 | 30 | 1.3 | 230 | – | IC50 [4]: 0.4 nM
7 | Nc1ncc(-c2cccc3[nH]ncc23)nc1C(=O)Nc1ncccc1N1CCC(N)CC1 | 41 | 31 | – | – | – | –
8 | Nc1ncc(-c2ncccc2OC(F)(F)F)nc1C(=O)Nc1cnccc1N1CCC(N)CC1 | 10 | 230 | – | 36 | – | Activity [5]: Toxic; Activity (92-1 [9]): Active; Activity [6]: Toxic; Activity [7]: Toxic
9 | Nc1ncc(-c2ncccc2C(F)(F)F)nc1C(=O)Nc1ncccc1N1CCC(N)CC1 | – | 8700 | – | – | 160 | –
10 | Nc1ncc(-c2ncccc2OC(F)(F)F)nc1C(=O)Nc1ncccc1N1CCC(N)C(F)(F)C1 (stereo not drawn) | – | – | 10 | 1740 | 2000 | IC50 [4]: 11 nM; pKa [10]: 6
11 | Nc1ncc(-c2cccc3[nH]ccc23)nc1C(=O)Nc1ncccc1N1CCC(N)CC1 | 19 | 33 | – | 11 | 780 | –
12 | CN1CCN(c2nc(C3=C(c4c[nH]c5ccccc45)C(=O)NC3=O)c3ccccc3n2)CC1 [SOTRASTAURIN] | – | – | 0.3 | – | – | IC50 [11]: 5.4 nM; IC50 [12]: 6 nM; Activity (92-1 [13]): Active; IC50 (SK-MEL-28): > 10000 nM; IC50 [14]: 5.9 nM; IC50 (cells): 250 nM; IC50 [15]: 2.1 nM; IC50 [16]: 64 nM
13 | Nc1ncc(-c2ncccc2C(F)(F)F)nc1C(=O)Nc1ncccc1N1C[C@H]2CC[C@@H](C1)[C@@H]2N | – | – | 3 | 1390 | > 30000 | IC50 [4]: 10 nM; pKa [10]: 9.4
14 | Nc1ncc(-c2nc(N3CCOCC3)cc3ccccc23)nc1C(=O)Nc1ncccc1N1CCC(N)CC1 | – | – | – | 22 | 160 | –
15 | Nc1ncc(-c2ncccc2OC(F)(F)F)nc1C(=O)Nc1ncccc1N1CCC(N)CC1 | – | 8460 | – | 180 | 200 | pKa [10]: 8.9
16 | CN(C)c1ccc(C(F)(F)F)c(-c2cnc(N)c(C(=O)Nc3ncccc3N3CCC(N)CC3)n2)n1 | 2700 | 95 | – | 66 | – | –
17 | Nc1ncc(-c2ncccc2OC(F)(F)F)nc1C(=O)Nc1ncccc1N1CCC(N)C(F)C1 (stereo not drawn) | – | – | – | 153 | 43 | pKa [10]: 7.6
18 | COC1CN(c2cccnc2NC(=O)c2nc(-c3ncccc3OC(F)(F)F)cnc2N)CCC1N (trans isomer) | – | – | – | 2800 | > 30000 | pKa [10]: 8
19 | Nc1ncc(-c2ncccc2F)nc1C(=O)Nc1ncccc1N1CCC(N)CC1 | – | – | – | – | 41 | –
20 | Nc1ncc(-c2nc(N3CCC3)ccc2C(F)(F)F)nc1C(=O)Nc1ncccc1N1CCC(N)CC1 | 2900 | 140 | – | – | – | –
